What was measured:
ALOMY [1] = experiment: Pre-emergence herbicidal action against ALOMY; assay type: in vivo, Alopecurus myosuroides; conditions: application rate 80 g/ha, scored visually after about 3 weeks vs untreated controls (100% = plants have died, 0% = like control plants)
From the text: (§1) 1. Pre-emergence herbicidal action against harmful plants and crop plant compatibility Seeds of monocotyledonous and dicotyledonous weed plants and crop plants are placed in plastic or wood-fibre pots and covered with soil. The compounds of the invention, formulated in the form of wettable powders (WP) or as emulsion concentrates (EC), are then applied onto the surface of the covering soil as aqueous suspension or emulsion with addition of 0.5% additive at a water application rate of 600 l/ha (converted). After the treatment, the pots are placed in a greenhouse and kept under good growth conditions for the trial plants. After about 3 weeks, the effect of the preparations is scored visually in comparison with untreated controls as percentages. For example, 100% activity=the plants have died, 0% activity=like control plants. [table]

AVEFA [2] = experiment: Pre-emergence herbicidal action against AVEFA; assay type: in vivo, Avena fatua; conditions: application rate 80 g/ha, scored visually after about 3 weeks vs untreated controls (100% = plants have died, 0% = like control plants)
From the text: as §1

LOLRI [3] = experiment: Pre-emergence herbicidal action against LOLRI; assay type: in vivo, Lolium rigidum; conditions: application rate 80 g/ha, scored visually after about 3 weeks vs untreated controls (100% = plants have died, 0% = like control plants)
From the text: as §1

SETVI [4] = experiment: Pre-emergence herbicidal action against SETVI; assay type: in vivo, Setaria viridis; conditions: application rate 80 g/ha, scored visually after about 3 weeks vs untreated controls (100% = plants have died, 0% = like control plants)
From the text: as §1

ABUTH [5] = experiment: Pre-emergence herbicidal action against ABUTH; assay type: in vivo, Abutilon theophrasti; conditions: application rate 80 g/ha, scored visually after about 3 weeks vs untreated controls (100% = plants have died, 0% = like control plants)
From the text: as §1

AMARE [6] = experiment: Pre-emergence herbicidal action against AMARE; assay type: in vivo, Amaranthus retroflexus; conditions: application rate 80 g/ha
From the text: as §1

POLCO [7] = experiment: Pre-emergence herbicidal action against POLCO; assay type: in vivo, Polygonum convolvulus; conditions: application rate 80 g/ha
From the text: as §1

STEME [8] = experiment: Pre-emergence herbicidal action against STEME; assay type: in vivo, Stellaria media; conditions: application rate 80 g/ha
From the text: as §1

VIOTR [9] = experiment: Pre-emergence herbicidal action against VIOTR; assay type: in vivo, Viola tricolor; conditions: application rate 80 g/ha
From the text: as §1

ALOMY [10] = experiment: Post-emergence herbicidal action against ALOMY; assay type: in vivo, Alopecurus myosuroides; conditions: application rate 80 g/ha, rated visually after about 3 weeks
Outline: (§2)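 Percent herbicidal activity was judged visually relative to untreated controls approximately 3 weeks after spraying. Treatment occurred at the one-leaf stage on greenhouse-grown plants in sandy loam.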

AVEFA [11] = experiment: Post-emergence herbicidal action against AVEFA; assay type: in vivo, Avena fatua; conditions: application rate 80 g/ha, rated visually after about 3 weeks
Outline: as §2

LOLRI [12] = experiment: Post-emergence herbicidal action against LOLRI; assay type: in vivo, Lolium rigidum; conditions: application rate 80 g/ha, rated visually after about 3 weeks
Outline: as §2

SETVI [13] = experiment: Post-emergence herbicidal action against SETVI; assay type: in vivo, Setaria viridis; conditions: application rate 80 g/ha, rated visually after about 3 weeks
Outline: as §2

ABUTH [14] = experiment: Post-emergence herbicidal action against ABUTH; assay type: in vivo, Abutilon theophrasti; conditions: application rate 80 g/ha, rated visually about 3 weeks after treatment
Outline: as §2

AMARE [15] = experiment: Post-emergence herbicidal action against AMARE; assay type: in vivo, Amaranthus retroflexus; conditions: application rate 80 g/ha, rated visually about 3 weeks after treatment
Outline: as §2

PHBPU [16] = experiment: Post-emergence herbicidal action against PHBPU; assay type: in vivo, Pharbitis purpurea; conditions: application rate 80 g/ha, rated visually about 3 weeks after treatment
Outline: as §2

POLCO [17] = experiment: Post-emergence herbicidal action against POLCO; assay type: in vivo, Polygonum convolvulus; conditions: application rate 80 g/ha, rated visually about 3 weeks after treatment
Outline: as §2

STEME [18] = experiment: Post-emergence herbicidal action against STEME; assay type: in vivo, Stellaria media; conditions: application rate 80 g/ha, rated visually about 3 weeks after treatment
Outline: as §2

VERPE [19] = experiment: Post-emergence herbicidal action against VERPE; assay type: in vivo, Veronica persica; conditions: application rate 80 g/ha
Outline: as §2

CYPES = experiment: Pre-emergence herbicidal action against CYPES; assay type: in vivo; conditions: application rate 80 g/ha, scored visually after about 3 weeks vs untreated controls (100% = plants have died, 0% = like control plants)
From the text: as §1, with “plants.” for “plants. [table]”

ECHCG [20] = experiment: Pre-emergence herbicidal action against ECHCG; assay type: in vivo, Echinochloa crus-galli; conditions: application rate 80 g/ha, scored visually after about 3 weeks vs untreated controls (100% = plants have died, 0% = like control plants)
From the text: as §1

MATIN [21] = experiment: Pre-emergence herbicidal action against MATIN; assay type: in vivo, Matricaria inodora; conditions: application rate 80 g/ha, scored visually after about 3 weeks vs untreated controls (100% = plants have died, 0% = like control plants)
From the text: as §1

PHBPU [22] = experiment: Pre-emergence herbicidal action against PHBPU; assay type: in vivo, Pharbitis purpurea; conditions: application rate 80 g/ha
From the text: as §1

VERPE [23] = experiment: Pre-emergence herbicidal action against VERPE; assay type: in vivo, Veronica persica; conditions: application rate 80 g/ha
From the text: as §1

HORMU [24] = experiment: Pre-emergence herbicidal action against HORMU; assay type: in vivo, Hordeum murinum; conditions: application rate 80 g/ha
From the text: as §1

ECHCG [25] = experiment: Post-emergence herbicidal action against ECHCG; assay type: in vivo, Echinochloa crus-galli; conditions: application rate 80 g/ha, rated visually after about 3 weeks
Outline: as §2

MATIN [26] = experiment: Post-emergence herbicidal action against MATIN; assay type: in vivo, Matricaria inodora; conditions: application rate 80 g/ha, rated visually about 3 weeks after treatment
Outline: as §2

VIOTR [27] = experiment: Post-emergence herbicidal action against VIOTR; assay type: in vivo, Viola tricolor; conditions: application rate 80 g/ha, rated visually about 3 weeks after treatment
Outline: as §2

HORMU [28] = experiment: Post-emergence herbicidal action against HORMU; assay type: in vivo, Hordeum murinum; conditions: application rate 80 g/ha
Outline: as §2

SMILES | Herbicidal action against [%] ALOMY (ALOMY [1]) | Herbicidal action against [%] AVEFA (AVEFA [2]) | Herbicidal action against [%] LOLRI (LOLRI [3]) | Herbicidal action against [%] SETVI (SETVI [4]) | Herbicidal action against [%] ABUTH (ABUTH [5]) | Herbicidal action against [%] AMARE (AMARE [6]) | Herbicidal action against [%] POLCO (POLCO [7]) | Herbicidal action against [%] STEME (STEME [8]) | Herbicidal action against [%] VIOTR (VIOTR [9]) | Herbicidal action against [%] ALOMY (ALOMY [10]) | Herbicidal action against [%] AVEFA (AVEFA [11]) | Herbicidal action against [%] LOLRI (LOLRI [12]) | Herbicidal action against [%] SETVI (SETVI [13]) | Herbicidal action against [%] PHBPU (PHBPU [16]) | Herbicidal action against [%] POLCO (POLCO [17]) | Herbicidal action against [%] STEME (STEME [18]) | Herbicidal action against [%] ECHCG (ECHCG [20]) | Herbicidal action against [%] MATIN (MATIN [21]) | Herbicidal action against [%] PHBPU (PHBPU [22]) | Herbicidal action against [%] HORMU (HORMU [24]) | further results
CC(C)C(C#N)NC(=O)C1C=CC(NC(=O)C2(C)CC(c3cc(F)cc(F)c3)=NO2)C1 (mixture of isomers) [II-12] | 90% | 80% | 90% | 90% | 80% | 90% | 100% | 90% | 80% | 90% | 80% | 80% | 80% | 80% | 80% | 90% | – | – | – | – | Herbicidal action against [%] ABUTH (ABUTH [14]): 80%; Herbicidal action against [%] AMARE (AMARE [15]): 80%; Herbicidal action against [%] VERPE (VERPE [19]): 80%
CC1(C(=O)NC2C=CC(C(=O)NS(=O)(=O)C(F)(F)F)C2)CC(c2cccc(F)c2)=NO1 (mixture of isomers) [II-16] | 100% | 80% | 100% | 80% | – | 90% | 90% | 100% | 80% | – | – | 80% | 80% | – | – | – | 100% | 80% | – | – | Herbicidal action against [%] CYPES (CYPES): 100%
C=CC1(C(=O)NC2C=CC(C(=O)OCC)C2)CC(c2cc(F)cc(F)c2)=NO1 (stereo not drawn) [Example I-013] | 100% | 100% | 100% | 100% | 90% | 100% | 90% | 100% | 100% | 80% | 90% | 90% | 90% | 80% | 90% | 80% | 100% | 100% | 90% | 100% | Herbicidal action against [%] VERPE (VERPE [23]): 90%; Herbicidal action against [%] ECHCG (ECHCG [25]): 80%; Herbicidal action against [%] ABUTH (ABUTH [14]): 80%; Herbicidal action against [%] AMARE (AMARE [15]): 80%; Herbicidal action against [%] MATIN (MATIN [26]): 90%; Herbicidal action against [%] VIOTR (VIOTR [27]): 80%; Herbicidal action against [%] VERPE (VERPE [19]): 80%; Herbicidal action against [%] HORMU (HORMU [28]): 90%
CCOC(=O)[C@@H]1C=C[C@H](NC(=O)C2(C)CC(c3cccc(F)c3)=NO2)C1 (stereo partly drawn) [Example I-006] | 100% | 90% | 100% | 100% | – | 100% | 80% | 100% | 90% | 80% | 80% | 80% | – | 80% | – | 80% | 100% | 90% | 90% | 90% | Herbicidal action against [%] CYPES (CYPES): 100%; Herbicidal action against [%] ECHCG (ECHCG [25]): 80%; Herbicidal action against [%] HORMU (HORMU [28]): 80%
C=CC1(C(=O)NC2C=CC(C(=O)OC)C2)CC(c2cc(F)cc(F)c2)=NO1 (stereo not drawn) [Example I-012] | 100% | 90% | 100% | 100% | 90% | 100% | 90% | 100% | 90% | 90% | 100% | 90% | 90% | 90% | 80% | 80% | 100% | 90% | 90% | 90% | Herbicidal action against [%] VERPE (VERPE [23]): 100%; Herbicidal action against [%] ECHCG (ECHCG [25]): 90%; Herbicidal action against [%] ABUTH (ABUTH [14]): 80%; Herbicidal action against [%] AMARE (AMARE [15]): 90%; Herbicidal action against [%] MATIN (MATIN [26]): 90%; Herbicidal action against [%] VIOTR (VIOTR [27]): 80%; Herbicidal action against [%] VERPE (VERPE [19]): 80%; Herbicidal action against [%] HORMU (HORMU [28]): 100%
CN(C)C(=O)C1=CCC(NC(=O)C2(C)CC(c3cccc(F)c3)=NO2)C1 (mixture of isomers) [IV-02] | 100% | 90% | 100% | 90% | 80% | 100% | 100% | 90% | 90% | – | – | – | – | – | 80% | – | 90% | – | 80% | 100% | Herbicidal action against [%] VERPE (VERPE [23]): 90%
COC(=O)[C@H]1C=C[C@@H](NC(=O)C2(C)CC(c3cccc(F)c3)=NO2)C1 (stereo partly drawn) [Example I-003, methyl (1R,4S)-4-[[[3-(3-fluorophenyl)-5-methyl-4H-1,2-oxazol-5-yl]carbonyl]amino]cyclopent-2-ene-1-carboxylate] | – | – | – | – | – | – | 80% | 80% | 100% | – | – | – | – | – | 80% | – | – | – | – | – | Herbicidal action against [%] CYPES (CYPES): 100%
CC1(C(=O)N[C@H]2C=C[C@@H](C(=O)O)C2)CC(c2cccc(F)c2)=NO1 (stereo partly drawn) [Example I-002] | 90% | 80% | 100% | 100% | – | 90% | 90% | 100% | 80% | 90% | 80% | 80% | 80% | 80% | – | 90% | 90% | 80% | 90% | 80% | Herbicidal action against [%] ECHCG (ECHCG [25]): 80%; Herbicidal action against [%] MATIN (MATIN [26]): 80%

Source: patent publication US12319664B2, “Herbicidally active 3-phenylisoxazoline-5-carboxamides of cyclopentenylcarboxylic acid derivatives” (Bayer Aktiengesellschaft, priority 2018, dated 2025)
